The text below walks through data of paper PMC8286840, “Identifying SARS-CoV-2 antiviral compounds by screening for small molecule inhibitors of Nsp3 papain-like protease” (Biochemical Journal, 2021).

Where a name gives a salt, the structure may show the parent alone. Read-outs that look alike come from different tables or passages of the source.

Assay [1] concerns the target T1, SARS-CoV-2 PLpro (nsp3 1564–1878) (Severe acute respiratory syndrome coronavirus 2, UniProt P0DTD1). The experiment in a line: biochemical. The note with it: low concentration screen, read-out: % of control remaining. Also noted: FRET-quenched peptide (Pro3) cleavage by PLpro, 10 min pre-incubation, slope over 20 min, normalised to no-compound control.
In assay [2] the target is T1, SARS-CoV-2 PLpro (nsp3 1564–1878). The experiment in a line: biochemical. Details: FRET-quenched peptide (Pro3) cleavage by PLpro, 10 min pre-incubation, slope over 20 min, normalised to no-compound control. The conditions noted are these: high concentration screen, read-out: % of control remaining.

For the compound `CCCN1C[C@H](CSC)C[C@@H]2c3cccc4[nH]cc(c34)C[C@H]21` [Pergolide methanesulfonate], in assay [1] (Well no.=1257), the remaining activity at 1.25 µM was found to be 112%. Moreover, the remaining activity at 3.75 µM in assay [2] (Well no.=1257) turned out to be 111%.

In the case of `C1CCC(C(CC2CCCCN2)C2CCCCC2)CC1` (centres unmarked) [Perhexiline maleate salt], the remaining activity at 1.25 µM in assay [1] (Well no.=5958) was found to be 97.2%. In addition, the remaining activity at 3.75 µM in assay [2] (Well no.=5958) worked out at 95.4%.

Consider `C=C(C)[C@@H]1CC=C(C(=O)O)CC1` [Perillic acid], for which, in assay [1] (Well no.=3429), the remaining activity at 1.25 µM worked out at 93.1%. Besides, the remaining activity at 3.75 µM in assay [2] (Well no.=3429) is 93.2%.

With `CCC[C@H](N[C@@H](C)C(=O)N1[C@H](C(=O)O)C[C@@H]2CCCC[C@@H]21)C(=O)OCC` [Perindopril (erbumine)], in assay [1] (Well no.=8070), the remaining activity at 1.25 µM worked out at 106%. The remaining activity at 3.75 µM in assay [2] (Well no.=8070) was found to be 102%.

With `CCC[C@H](N[C@@H](C)C(=O)N1[C@H](C(=O)O)C[C@@H]2CCCC[C@@H]21)C(=O)OCC` [Perindopril Erbumine], in assay [1] (Well no.=8778), the remaining activity at 1.25 µM turned out to be 89.7%. For the same compound, in assay [2] (Well no.=8778), the remaining activity at 3.75 µM was found to be 84.8%.

As for `OCCN1CCN(CCCN2c3ccccc3Sc3ccc(Cl)cc32)CC1` [Perphenazine], the remaining activity at 1.25 µM was found to be 98.7% in assay [1] (Well no.=1006) and 104% in assay [1] (Well no.=6319). In addition, the remaining activity at 3.75 µM in assay [2] (Well no.=1006) is 99.2%; in assay [2] (Well no.=6319) it was 99.7%.

With `CO[C@H]1[C@H](O)[C@H](O[C@H]2CC[C@@]3(C=O)[C@H](CC[C@@H]4[C@@H]3CC[C@]3(C)[C@@H](C5=CC(=O)OC5)CC[C@]43O)C2)O[C@@H](C)[C@@H]1O` [Peruvoside], the remaining activity at 1.25 µM in assay [1] (Well no.=3687) turned out to be 97.8%. Besides, in assay [2] (Well no.=3687), the remaining activity at 3.75 µM stood at 102%.

In the case of `NCC(CP(=O)(O)O)c1ccc(Cl)cc1` (centres unmarked) [Phaclofen], the remaining activity at 1.25 µM in assay [1] (Well no.=1167) stood at 103%. For the same compound, the remaining activity at 3.75 µM in assay [2] (Well no.=1167) came out at 104%.

Turning to `CCOc1ccc(NC(C)=O)cc1` [Phenacetin], the remaining activity at 1.25 µM in assay [1] (Well no.=4948) turned out to be 98.7%. The remaining activity at 3.75 µM in assay [2] (Well no.=4948) was determined as 93.7%.

For the compound `N=C(NC(=O)c1nc(Cl)c(N)nc1N)Nc1ccccc1` [Phenamil methanesulfonate], the remaining activity at 1.25 µM in assay [1] (Well no.=1313) is 101%. The remaining activity at 3.75 µM in assay [2] (Well no.=1313) worked out at 99.6%.

In the case of `NNCCc1ccccc1` [Phenelzine sulfate], in assay [1] (Well no.=1203), the remaining activity at 1.25 µM was determined as 99.6%. The remaining activity at 3.75 µM in assay [2] (Well no.=1203) amounted to 98.7%.

In the case of `N=C(N)NC(=N)NCCc1ccccc1` [Phenformin HCl], in assay [1] (Well no.=4908), the remaining activity at 1.25 µM is 100%. Further, in assay [2] (Well no.=4908), the remaining activity at 3.75 µM was found to be 98.5%.

For `O=C1CCN(c2ccccc2)N1` [Phenidone], the remaining activity at 1.25 µM in assay [1] (Well no.=3951) is 103%. Moreover, in assay [2] (Well no.=3951), the remaining activity at 3.75 µM came to 101%.

Turning to `CN(C)CCC(c1ccccc1)c1ccccn1` (centres unmarked) [Pheniramine (Maleate)], the remaining activity at 1.25 µM in assay [1] (Well no.=6799) amounted to 99.4%. In assay [2] (Well no.=6799), the remaining activity at 3.75 µM was found to be 90%.

For the compound `CC(COc1ccccc1)N(CCCl)Cc1ccccc1` (centres unmarked) [Phenoxybenzamine (hydrochloride)], the remaining activity at 1.25 µM in assay [1] (Well no.=6797) was determined as 99.8%. Further, the remaining activity at 3.75 µM in assay [2] (Well no.=6797) was found to be 93.2%.

As to `CC(COc1ccccc1)N(CCCl)Cc1ccccc1` (centres unmarked) [Phenoxybenzamine hydrochloride], the remaining activity at 1.25 µM in assay [1] (Well no.=371) was determined as 95.1%. The remaining activity at 3.75 µM in assay [2] (Well no.=371) amounted to 91.2%.

Consider `CC(COc1ccccc1)N(CCCl)Cc1ccccc1` (centres unmarked) [Phenoxybenzamine.HCl], for which the remaining activity at 1.25 µM in assay [1] (Well no.=1761) was found to be 102%. The remaining activity at 3.75 µM in assay [2] (Well no.=1761) came to 101%.

In the case of `CN1CC[C@@]2(C)c3cc(OC(=O)Nc4ccccc4)ccc3N(C)[C@@H]12` [Phenserine], the remaining activity at 1.25 µM in assay [1] (Well no.=6093) worked out at 90.2%. Moreover, the remaining activity at 3.75 µM in assay [2] (Well no.=6093) worked out at 89.8%.

For `Cc1ccc(N(CC2=NCCN2)c2cccc(O)c2)cc1` [Phentolamine (mesylate)], the remaining activity at 1.25 µM in assay [1] (Well no.=7326) is 93.7%. In addition, the remaining activity at 3.75 µM in assay [2] (Well no.=7326) turned out to be 90%.

As to `Cc1ccc(N(CC2=NCCN2)c2cccc(O)c2)cc1` [Phentolamine mesylate], the remaining activity at 1.25 µM in assay [1] (Well no.=1253) amounted to 104%. Also, the remaining activity at 3.75 µM in assay [2] (Well no.=1253) amounted to 106%.

Regarding `Cc1ccc(N(CC2=NCCN2)c2cccc(O)c2)cc1` [Phentolamine], in assay [1] (Well no.=1635), the remaining activity at 1.25 µM came out at 105%. The remaining activity at 3.75 µM in assay [2] (Well no.=1635) is 105%.

`NC(Cc1cccc(-c2ccccc2CP(=O)(O)O)c1)C(=O)O` (stereo not drawn) [Phenylbenzene-omega-phosphono-alpha-amino acid]: the remaining activity at 1.25 µM in assay [1] (Well no.=1361) was found to be 100%. For the same compound, the remaining activity at 3.75 µM in assay [2] (Well no.=1361) is 100%.

In the case of `CCCCC1C(=O)N(c2ccccc2)N(c2ccccc2)C1=O` [Phenylbutazone], the remaining activity at 1.25 µM amounted to 102% in assay [1] (Well no.=1303) and 101% in assay [1] (Well no.=2105). Moreover, the values for the remaining activity at 3.75 µM in assay [2] (Well no.=1303) and in assay [2] (Well no.=2105) were 99.3% and 101%, respectively.

With `CNC[C@H](O)c1cccc(O)c1` [Phenylephrine hydrochloride], the remaining activity at 1.25 µM in assay [1] (Well no.=958) was determined as 101%. For the same compound, the remaining activity at 3.75 µM in assay [2] (Well no.=958) came out at 103%.

Regarding `C[C@H](N)[C@H](O)c1ccccc1` [Phenylpropanolamine], in assay [1] (Well no.=2292), the remaining activity at 1.25 µM is 96.7%. The remaining activity at 3.75 µM in assay [2] (Well no.=2292) amounted to 97.2%.

For `O=C1N=C(O)NC1(c1ccccc1)c1ccccc1` [Phenytoin sodium], the remaining activity at 1.25 µM in assay [1] (Well no.=403) turned out to be 104%. Also, the remaining activity at 3.75 µM in assay [2] (Well no.=403) worked out at 104%.

As for `O=C1NC(=O)C(c2ccccc2)(c2ccccc2)N1` [Phenytoin], the remaining activity at 1.25 µM in assay [1] (Well no.=1643) was 99.6%. The remaining activity at 3.75 µM in assay [2] (Well no.=1643) worked out at 100%.

As to `CCn1c2ccccc2c2cc(CNC)ccc21` [PhiKan 083], the remaining activity at 1.25 µM in assay [1] (Well no.=6830) is 93.5%. Also, the remaining activity at 3.75 µM in assay [2] (Well no.=6830) amounted to 93.9%.

As to `O=C(CCc1ccc(O)cc1)c1c(O)cc(O)cc1O` [Phloretin], the remaining activity at 1.25 µM in assay [1] (Well no.=1397) came to 102%; in assay [1] (Well no.=3821), 95.3%. The values for the remaining activity at 3.75 µM in assay [2] (Well no.=1397) and in assay [2] (Well no.=3821) were 102% and 94.8%, respectively.

Turning to `O=C(CCc1ccc(O)cc1)c1c(O)cc(O)cc1O[C@@H]1O[C@H](CO)[C@@H](O)[C@H](O)[C@H]1O` [Phlorizine], in assay [1] (Well no.=3452), the remaining activity at 1.25 µM was found to be 94.2%. Besides, the remaining activity at 3.75 µM in assay [2] (Well no.=3452) was 97.9%.

In the case of `CCCC(=O)O[C@@H]1[C@@H](C)[C@@]2(O)[C@@H](C=C(CO)C[C@]3(O)C(=O)C(C)=C[C@@H]23)[C@@H]2C(C)(C)[C@]12OC(=O)CCC` [Phorbol 12,13-dibutyrate], the remaining activity at 1.25 µM in assay [1] (Well no.=3487) turned out to be 97.7%. For the same compound, the remaining activity at 3.75 µM in assay [2] (Well no.=3487) came out at 100%.
